Patent US20250052744A1, “Dyes and Uses Thereof” (The University of Liverpool, priority 2021, published 2025)
“Also recorded” adds a separate entry of the source.

Experiments:
Escherichia coli = test: Qualitative dye staining on agarose pads (EVOS M7000); format: cell-based; design: key to Relative fluorescent intensity: Very high: If the cells looked twice as big in the fluorescent channel, it was marked as having “very high” relative fluorescent intensity; High: if the cells looked bigger in the fluorescent channel, it was marked as having “high” relative fluorescent intensity; Medium: If the cells looked almost the same size in the fluorescent channel and the bright field, it was marked as having “medium” relative fluorescent intensity; Low: If the cells looked smaller in the fluorescent channel as compared to the brightfield but still the whole cell was visible, it was marked as having “low” relative fluorescent intensity; Negligible: If only a few traces of a cell was visible in the fluorescent channel, it was marked as having “negligible” relative fluorescent intensity; conditions: DiSC3(5) 3 μM, SYBR Green I 10×, SYTO 13 3 μM, FM4-64 15 μM
Method: (§1) An overnight culture was prepared by inoculating a bacterial colony in approximately 5 ml of Urine and incubating the culture in an orbital shaker at 37° C.
(§2) The following media and materials were utilised: Cation-adjusted Mueller Hinton broth (MHB); Phosphate Buffered Saline (PBS); Membrane staining dye—FM4-64 (1.5 mM); Live cell staining dye—DiSC3(5) (1 mM); DNA staining dye—SYBR Green (1000×); DNA staining dye—SYTO 13 (0.5 mM); Ultrapure Agarose; Parafilm; Glass slides and coverslips; Scalpel; and EVOS M7000 fluorescent microscope.
(§3) A pre-cut parafilm or a coverslip was used as a guide and 22 mm×22 mm squares cut from parafilm. A square was cut out of the centre of the parafilm (approximately 10 mm×10 mm). The centre of the cut-out was discarded. Two parafilm gaskets were placed onto a cleaned glass slide. The glass slide was then placed on a dry bath set to 56° C. so that the parafilm adhered to the glass slide. The glass slide was then kept on the dry bath. Using a microwave, ultrapure agarose was dissolved in PBS at a concentration of 1.2%. The agarose solution was kept on a dry bath set at 56° C. 60 μl of the agarose solution was pipetted in the centre of the parafilm gaskets. A coverslip was then placed over the gaskets without applying pressure on the coverslip. The slide was then placed on a cool surface and left to solidify for 1-2 minutes. The coverslips were then gently lifted off the agarose pads.
(§4) In a first Eppendorf, 15 μl of FM4-64 and 6 μl of SYTO 13 was added and in a second Eppendorf 10 μl of SYBR Green and 3 μl of DiSC3(5) was added. Depending on the bacterial growth in urine, an appropriate concentration of the bacterial culture was placed in the two Eppendorfs (final bacterial concentration 10^6 CFU/ml). MHB was added so as to achieve a final volume of 1 ml. Final concentrations of the dyes in the sample was as follows: DiSC3(5): 3 μM; SYBR Green I: 10× (originally supplied as 10,000×); SYTO 13: 3 μM; and FM4-64: 15 μM
(§5) 4 μl of the contents of each Eppendorf were deposited on one agarose pad and the cells distributed across the agar surface by tilting the slide. The slide was left to dry for approximately 1 minute. A coverslip was then placed on top of the agarose pad. The slide was placed inside the microscope and incubated at 37° C. for 10 minutes. Using different light filters for each dye, an image of each pad at 40× magnification on an EVOS M7000 fluorescent microscope was captured. Eight images for each agarose pad was recorded (i.e. 8 each for brightfield and 2 fluorescent channels). For each agarose pad, 24 images were recorded. This corresponded to 48 images in total for each bacterial strain (2 agarose pads per strain). Table A below was used to take the images using the correct fluorescent channel and intensity (for imagining on any other instrument, the LED intensity will need to be normalised against the EVOS M7000).
(§6) To qualitatively calculate the relative fluorescent intensities, cell size was compared between brightfield and the fluorescent channel for a given fluorescent dye. If the cells are very fluorescent, they will appear bigger in the fluorescent channel as compared to the bright field. For our qualitative measurements, if the cells looked bigger in the fluorescent channel, it was marked as having “high” relative fluorescent intensity. If the cells looked twice as big in the fluorescent channel, it was marked as having “very high” relative fluorescent intensity. If the cells looked almost the same size in the fluorescent channel and the bright field, it was marked as having “medium” relative fluorescent intensity. If the cells looked smaller in the fluorescent channel as compared to the brightfield but still the whole cell was visible, it was marked as having “low” relative fluorescent intensity. If only a few traces of a cell was visible in the fluorescent channel, it was marked as having “negligible” relative fluorescent intensity.

Pseudomonas aeruginosa = test: as above; format: cell-based; design: key to Relative fluorescent intensity: Very high: If the cells looked twice as big in the fluorescent channel, it was marked as having “very high” relative fluorescent intensity; High: if the cells looked bigger in the fluorescent channel, it was marked as having “high” relative fluorescent intensity; Medium: If the cells looked almost the same size in the fluorescent channel and the bright field, it was marked as having “medium” relative fluorescent intensity; Low: If the cells looked smaller in the fluorescent channel as compared to the brightfield but still the whole cell was visible, it was marked as having “low” relative fluorescent intensity; Negligible: If only a few traces of a cell was visible in the fluorescent channel, it was marked as having “negligible” relative fluorescent intensity; conditions: DiSC3(5) 3 μM, SYBR Green I 10×, SYTO 13 3 μM, FM4-64 15 μM
Method: as §1, §2, §3, §4, §5, §6

[1] = Table 6 thresholds, Escherichia coli
[2] = Table 7 commercial strain E. coli SEC 27
[3] = Table 7 commercial strain E. coli SEC 93
[4] = Table 8 sample Escherichia coli (051)
[5] = Table 8 sample Escherichia coli (052)
[6] = Table 8 sample Escherichia coli (053)
[7] = Table 6 thresholds, Pseudomonas aeruginosa
[8] = Table 7 commercial strain Pseudomonas aeruginosa NCTC 10332
[9] = Table 7 commercial strain Pseudomonas aeruginosa NCTC 13715
[10] = Table 8 sample Pseudomonas aeruginosa (031)
[11] = Table 8 sample Pseudomonas aeruginosa (032)
[12] = Table 8 sample Pseudomonas aeruginosa (033)

Structure (SMILES)	Percentage of cells stained (Escherichia coli; [1])	Relative fluorescent intensity (Escherichia coli; [1])	Percentage of cells stained (Escherichia coli; [2])	Relative fluorescent intensity (Escherichia coli; [2])	Percentage of cells stained (Escherichia coli; [3])	Relative fluorescent intensity (Escherichia coli; [3])	Percentage of cells stained (Escherichia coli; [4])	Relative fluorescent intensity (Escherichia coli; [4])	Percentage of cells stained (Escherichia coli; [5])	Relative fluorescent intensity (Escherichia coli; [5])	Percentage of cells stained (Escherichia coli; [6])	Relative fluorescent intensity (Escherichia coli; [6])	Percentage of cells stained (Pseudomonas aeruginosa; [7])	Relative fluorescent intensity (Pseudomonas aeruginosa; [7])	Percentage of cells stained (Pseudomonas aeruginosa; [8])	Relative fluorescent intensity (Pseudomonas aeruginosa; [8])	Percentage of cells stained (Pseudomonas aeruginosa; [9])	Relative fluorescent intensity (Pseudomonas aeruginosa; [9])	Percentage of cells stained (Pseudomonas aeruginosa; [10])	Relative fluorescent intensity (Pseudomonas aeruginosa; [10])	other results
CCCN1C(=CC=CC=Cc2sc3ccccc3[n+]2CCC)Sc2ccccc21.[I-] [DiSC3(5), 3,3′-Dipropylthiadicarbocyanine Iodide]	Almost all	Medium	Almost all	Medium	Almost all	Medium	Almost all	Medium	Almost all	Medium	Almost all	Medium	Few	no or negligible staining; also recorded: Negligible	Few	Negligible	Few	Negligible	Few	Negligible	Percentage of cells stained (Pseudomonas aeruginosa; [11]): Few; Relative fluorescent intensity (Pseudomonas aeruginosa; [11]): Negligible; Percentage of cells stained (Pseudomonas aeruginosa; [12]): Few; Relative fluorescent intensity (Pseudomonas aeruginosa; [12]): Negligible
CCN(CC)c1ccc(C=CC=CC=Cc2cc[n+](CCC[N+](CC)(CC)CC)cc2)cc1.[Br-].[Br-] [FM 4-64, N-(3-Triethylammoniumpropyl)-4-(6-(4-(Diethylamino) Phenyl) Hexatrienyl) Pyridinium Dibromide]	Almost all	Medium	Almost all	Medium	Almost all	Medium	Almost all	Medium	Almost all	Medium	Almost all	Medium	Almost all	Low	Almost all	Negligible	Almost all	Low	Almost all	Low	Percentage of cells stained (Pseudomonas aeruginosa; [11]): Almost all; Relative fluorescent intensity (Pseudomonas aeruginosa; [11]): Low; Percentage of cells stained (Pseudomonas aeruginosa; [12]): Almost all; Relative fluorescent intensity (Pseudomonas aeruginosa; [12]): Low
CCCN(CCCN(C)C)c1cc(/C=C2/Sc3ccccc3N2C)c2ccccc2[n+]1-c1ccccc1 [SYBR Green I, N′,N′-dimethyl-N-[4-[(E)-(3-methyl-1,3-benzothiazol-2-ylidene)methyl]-1-phenylquinolin-1-ium-2-yl]-N-propylpropane-1,3-diamine]	Almost all	Medium	Almost all	Medium	Almost all	Medium	Almost all	Medium	Almost all	Medium	Almost all	Medium	Almost all	Low	Almost all	Low	Almost all	Low	Almost all	Low	Percentage of cells stained (Pseudomonas aeruginosa; [11]): Almost all; Relative fluorescent intensity (Pseudomonas aeruginosa; [11]): Low; Percentage of cells stained (Pseudomonas aeruginosa; [12]): Almost all; Relative fluorescent intensity (Pseudomonas aeruginosa; [12]): Low
